Test results reported in patent US10189836B2, “Therapeutic compounds, compositions and methods of use thereof” (Genentech, Inc., priority 2015, dated 2019).

Key:
[1] = target: isolated recombinant JAK1 kinase domain (Homo sapiens (Human), UniProt P23458); experiment: JAK1 enzyme assay (Caliper LabChip, Ki); type: biochemical; conditions: isolated recombinant JAK1 kinase domain, 1.5 nM enzyme, ATP 25 μM
[2] = target: isolated recombinant JAK2 kinase domain (Homo sapiens (Human), UniProt O60674); experiment: JAK2 enzyme assay (Caliper LabChip, Ki); type: biochemical; conditions: isolated recombinant JAK2 kinase domain, 0.2 nM enzyme, ATP 25 μM
Sequence of isolated recombinant JAK2 kinase domain (O60674 849-1124): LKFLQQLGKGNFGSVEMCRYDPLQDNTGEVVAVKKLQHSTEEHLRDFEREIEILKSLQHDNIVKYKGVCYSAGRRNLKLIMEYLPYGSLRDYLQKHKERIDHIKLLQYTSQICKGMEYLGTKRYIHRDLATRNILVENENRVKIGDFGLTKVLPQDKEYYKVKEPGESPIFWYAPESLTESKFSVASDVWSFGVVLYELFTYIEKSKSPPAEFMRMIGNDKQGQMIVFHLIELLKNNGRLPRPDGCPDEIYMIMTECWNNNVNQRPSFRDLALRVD

Sequence of isolated recombinant JAK1 kinase domain (P23458 875-1153): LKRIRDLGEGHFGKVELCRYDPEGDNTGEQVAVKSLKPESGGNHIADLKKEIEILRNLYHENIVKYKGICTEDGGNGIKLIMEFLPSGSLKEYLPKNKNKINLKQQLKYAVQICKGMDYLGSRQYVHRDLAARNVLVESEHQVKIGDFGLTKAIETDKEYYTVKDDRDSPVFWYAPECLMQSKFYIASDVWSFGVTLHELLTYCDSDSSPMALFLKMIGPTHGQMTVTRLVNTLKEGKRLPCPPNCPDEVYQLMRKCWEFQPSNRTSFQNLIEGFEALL

Compound | Ki [1] | Ki [2]
CN1CCN(C(=O)Cn2cc(Nc3nc4c(N5CC6CCC(C5)N6C(=O)c5cccc(C#N)c5)cccn4n3)cn2)CC1 [Example 199, 3-[3-[2-[[1-[2-(4-methylpiperazin-1-yl)-2-oxo-ethyl]pyrazol-4-yl]amino]-[1,2,4]triazolo[1,5-a]pyridin-8-yl]-3,8-diazabicyclo[3.2.1]octane-8-carbonyl]benzonitrile] | 1.3 nM | 2.1 nM
O=C(Cn1cc(Nc2nc3c(N4CC5CCC(C4)N5C(=O)CCC(F)(F)F)cccn3n2)cn1)N1CCN(C2CCOCC2)CC1 [Example 10, 4,4,4-trifluoro-1-[3-[2-[[1-[2-oxo-2-(4-tetrahydropyran-4-ylpiperazin-1-yl)ethyl]pyrazol-4-yl]amino]-[1,2,4]triazolo[1,5-a]pyridin-8-yl]-3,8-diazabicyclo[3.2.1]octan-8-yl]butan-1-one] | 0.7 nM | 1.2 nM
CN1CCN(C(=O)Cn2cc(Nc3nc4c(N5CC6CCCC(C5)N6C(=O)CC5CC(F)(F)C5)cccn4n3)cn2)CC1 [Example 97, 2-(3,3-difluorocyclobutyl)-1-[3-[2-[[1-[2-(4-methylpiperazin-1-yl)-2-oxo-ethyl]pyrazol-4-yl]amino]-[1,2,4]triazolo[1,5-a]pyridin-8-yl]-3,9-diazabicyclo[3.3.1]nonan-9-yl]ethanone] | 0.6 nM | 0.5 nM
CN1CCN(C(=O)Cn2cc(Nc3nc4c(N5CC6CCC(C5)N6C(=O)N5CC(F)C5)cccn4n3)cn2)CC1 [Example 170, 2-[4-[[8-[8-(3-fluoroazetidine-1-carbonyl)-3,8-diazabicyclo[3.2.1]octan-3-yl]-[1,2,4]triazolo[1,5-a]pyridin-2-yl]amino]pyrazol-1-yl]-1-(4-methylpiperazin-1-yl)ethanone] | 0.3 nM | 0.2 nM
CN1CCN(C(=O)Cn2cc(Nc3nc4c(N5CC6CCC(C5)N6C(=O)CC5CC(F)(F)C5(F)F)cccn4n3)cn2)CC1 (stereo not shown) [Example 91, 1-[3-[2-[[1-[2-(4-methylpiperazin-1-yl)-2-oxo-ethyl]pyrazol-4-yl]amino]-[1,2,4]triazolo[1,5-a]alpyridin-8-yl]-3,8-diazabicyclo[3.2.1]octan-8-yl]-2(2,2,3,3-tetrafluorocyclobutyl) ethanone] | 0.8 nM | 0.9 nM
CN1CCN(C(=O)Cn2cc(Nc3nc4c(N5CC6CCC(C5)N6Cc5ccc(C#N)cc5)cccn4n3)cn2)CC1 [Example 56, 4-[[3-[2-[[1-[2-(4-methylpiperazin-1-yl)-2-oxo-ethyl]pyrazol-4-yl]amino]-[1,2,4]triazolo[1,5-a]pyridin-8-yl]-3,8-diazabicyclo[3.2.1]octan-8-yl]methyl]benzonitrile] | 1.4 nM | 5.1 nM
CN1CCN(C(=O)Cn2cc(Nc3nc4c(N5CC6CCC(C5)N6C(=O)N5CCC(F)(F)CC5)cccn4n3)cn2)CC1 [Example 188, 2-[4-[[8-[8-(4,4-difluoropiperidine-1-carbonyl)-3,8-diazabicyclo[3.2.1]octan-3-yl]-[1,2,4]triazolo[1,5-a]pyridin-2-yl]amino]pyrazol-1-yl]-1-(4-methylpiperazin-1-yl)ethanone] | 0.2 nM | 0.2 nM
CN1CCN(C(=O)Cn2cc(Nc3nc4c(N5CC6CCC(C5)N6C(=O)C5CC(C#N)C5)cccn4n3)cn2)CC1 (stereo not shown) [Example 92, 3-[3-[2-[[1-[2-(4-methylpiperazin-1-yl)-2-oxo-ethyl]pyrazol-4-yl]amino]-[1,2,4]triazolo[1,5-a]pyridin-8-yl]-3,8-diazabicyclo[3.2.1]octane-8-carbonyl]cyclo-butanecarbonitrile] | 0.9 nM | 1.7 nM
CN1CCN(C(=O)Cn2cc(Nc3nc4c(N5CC6CCC(C5)N6S(=O)(=O)Cc5ccc(Cl)cc5)cccn4n3)cn2)CC1 [Example 166, 2-[4-[[8-[8-[(4-chlorophenyl)methylsulfonyl]-3,8-diazabicyclo[3.2.1]octan-3-yl]-[1,2,4]triazolo[1,5-a]pyridin-2-yl]amino]pyrazol-1-yl]-1-(4-methylpiperazin-1-yl)ethanone] | 0.7 nM | 0.9 nM
CN1CCN(C(=O)Cn2cc(Nc3nc4c(N5CC6CCC(C5)N6CC(F)(F)F)cccn4n3)cn2)CC1 [Example 98, 1-(4-methylpiperazin-1-yl)-2-[4-[[8-[8-(2,2,2-trifluoroethyl)-3,8-diazabicyclo[3.2.1]octan-3-yl]-[1,2,4]triazolo[1,5-a]pyridin-2-yl]amino]pyrazol-1-yl]ethanone] | 2.1 nM | 4.1 nM
CN1CCN(C(=O)Cn2cc(Nc3nc4c(N5CC6CCC(C5)N6C(=O)C5CC(F)(F)C5)cccn4n3)cn2)CC1 [Example 46, 2-[4-[[8-[8-(3,3-difluorocyclobutanecarbonyl)-3-yl]-3,8-diazabicyclo[3.2.1]octan-[1,2,4]triazolo[1,5-a]pyridin-2-yl]amino]pyrazol-1-yl]-1-(4-methylpiperazin-1-yl)ethanone] | 1.4 nM | 1.7 nM
CN1CCN(C(=O)Cn2cc(Nc3nc4c(N5CC6CCC(C5)N6S(=O)(=O)c5ccccc5)cccn4n3)cn2)CC1 [Example 61, 2-[4-[[8-[8-(benzenesulfonyl)-3,8-diazabicyclo[3.2.1]octan-3-yl]-[1,2,4]triazolo[1,5-a]pyridin-2-yl]amino]pyrazol-1-yl]-1-(4-methylpiperazin-1-yl)ethanone] | 0.6 nM | 1 nM
CN1CCN(C(=O)Cn2cc(Nc3nc4c(N5CC6CCC(C5)N6C(=O)C5CC6CCC5O6)cccn4n3)cn2)CC1 (stereo not shown) [Example 53, 1-(4-methylpiperazin-1-yl)-2-[4-[[8-[8-(7-oxabicyclo[2.2.1]heptane-3-carbonyl)-3,8-diazabicyclo[3.2.1]octan-3-yl]-[1,2,4]triazolo[1,5-a]pyridin-2-yl]amino]pyrazol-1-yl]ethanone] | 1.9 nM | 2.8 nM
CN1CCN(C(=O)Cn2cc(Nc3nc4c(N5CC6CCC(C5)N6S(=O)(=O)c5ccccc5F)cccn4n3)cn2)CC1 [Example 150, 2-[4-[[8-[8-(2-fluorophenyl)sulfonyl-3,8-diazabicyclo[3.2.1]octan-3-yl]-[1,2,4]triazolo[1,5-a]pyridin-2-yl]amino]pyrazol-1-yl]-1-(4-methylpiperazin-1-yl)ethanone] | 0.7 nM | 1.5 nM
CN1CCN(C(=O)Cn2cc(Nc3nc4c(N5CC6CCC(C5)N6C(=O)c5ccsc5)cccn4n3)cn2)CC1 [Example 157, 1-(4-methylpiperazin-1-yl)-2-[4-[[8-[8-(thiophene-3-carbonyl)-3,8-diazabicyclo[3.2.1]octan-3-yl]-[1,2,4]triazolo[1,5-a]pyridin-2-yl]amino]pyrazol-1-yl]ethanone] | 0.4 nM | 1.4 nM
CN1CCN(C(=O)Cn2cc(Nc3nc4c(N5CC6CC(C5)N6Cc5ccc(Cl)cc5)cccn4n3)cn2)CC1 [Example 34, 2-[4-[(8-[6-[(4-chlorophenyl)methyl]-3,6-diazabicyclo[3.1.1]heptan-3-yl]-[1,2,4]triazolo[1,5-a]pyridin-2-yl)amino]-1H-pyrazol-1-yl]-1-(4-methylpiperazin-1-yl)ethan-1-one] | 68.8 nM | 271 nM
CN1CCN(C(=O)Cn2cc(Nc3nc4c(N5CC6CCC(C5)N6S(=O)(=O)c5ccc(C#N)cc5)cccn4n3)cn2)CC1 [Example 149, 4-[3-[2-([1-[2-(4-methylpiperazin-1-yl)-2-oxoethyl]-1H-pyrazol-4-yl]amino)-[1,2,4]triazolo[1,5-a]pyridin-8-yl]-3,8-diazabicyclo[3.2.1]octane-8-sulfonyl]benzonitrile] | 1.1 nM | 2 nM
CN1CCN(C(=O)Cn2cc(Nc3nc4c(N5CC6CCC(C5)N6C(=O)C5CCC(F)(F)CC5)cccn4n3)cn2)CC1 [Example 51, 2-[4-[[8-[8-(4,4-difluorocyclohexanecarbonyl)-3,8-diazabicyclo[3.2.1]octan-3-yl]-[1,2,4]triazolo[1,5-a]pyridin-2-yl]amino]pyrazol-1-yl]-1-(4-methylpiperazin-1-yl)ethanone] | 2 nM | 4.8 nM
CN1CCN(C(=O)Cn2cc(Nc3nc4c(N5C[C@H]6CC[C@@H](C5)[C@H]6N(C)C(=O)CC(F)(F)F)cccn4n3)cn2)CC1 [Example 164, 3,3,3-trifluoro-N-methyl-N-[rac-(1S,5R)-3-[2-[[1-[2-(4-methylpiperazin-1-yl)-2-oxo-ethyl]pyrazol-4-yl]amino]-[1,2,4]triazolo[1,5-a]pyridin-8-yl]-3-azabicyclo[3.2.1]octan-8-yl]propanamide] | 0.7 nM | 1 nM
Cc1cc(S(=O)(=O)N2C3CCC2CN(c2cccn4nc(Nc5cnn(CC(=O)N6CCN(C)CC6)c5)nc24)C3)sn1 [Example 139, 2-[4-[[8-[8-(3-yl)sulfonyl-3,8-diazabicyclo[3.2.1]octan-3-yl]-[1,2,4]triazolo[1,5-a]pyridin-2-yl]amino]pyrazol-1-yl]-1-(4-methylpiperazin-1-yl)ethanone] | 0.8 nM | 0.6 nM
CCN1CCN(C(=O)Cn2cc(Nc3nc4c(N5CC6CCC(C5)N6C(=O)N5CC(C(F)(F)F)C5)cccn4n3)cn2)CC1 [Example 59, 1-(4-ethylpiperazin-1-yl)-2-[4-[[8-[8-[3-(trifluoromethyl)azetidine-1-carbonyl]-3,8-diazabicyclo[3.2.1]octan-3-yl]-[1,2,4]triazolo[1,5-a]pyridin-2-yl]amino]pyrazol-1-yl]ethanone] | 0.8 nM | 0.5 nM
CN1CCN(C(=O)Cn2cc(Nc3nc4c(N5CC6CCC(C5)N6S(=O)(=O)Cc5ccc(F)cc5)cccn4n3)cn2)CC1 [Example 160, 2-[4-[[8-[8-[(4-fluorophenyl)methylsulfonyl]-3,8-diazabicyclo[3.2.1]octan-3-yl]-[1,2,4]triazolo[1,5-a]pyridin-2-yl]amino]pyrazol-1-yl]-1-(4-methylpiperazin-1-yl)ethanone] | 0.6 nM | 0.9 nM
CN1CCN(C(=O)Cn2cc(Nc3nc4c(N5CC6CCC(C5)N6C(=O)Cc5ccncc5)cccn4n3)cn2)CC1 [Example 42, 1-[3-[2-[[1-[2-(4-methylpiperazin-1-yl)-2-oxo-ethyl]pyrazol-4-yl]amino]-[1,2,4]triazolo[1,5-a]pyridin-8-yl]-3,8-diazabicyclo[3.2.1]octan-pyridyl)ethanone] | 1.6 nM | 5.7 nM
